The nature of series [1]: Plasma protein binding rate, rapid equilibrium dialysis, human plasma. The class given is in vitro ADME. Particulars: 37°C. The method, then: In brief, the unbound drugs (or references) were separated from plasma (human and rat) in a 96-well plate with a semipermeable membrane through which only unbound drug can permeate. The equilibrium unit was sealed and incubated at 37°C in a mixer at 100 rpm for 4 h.
Then, 50 ng/ml of midazolam and 50 ng/ml of tolbutamide (in acetonitrile) were used as IS.
After reaching equilibrium, the concentrations of the samples in both the plasma and the buffer compartment were determined. According to the specification, the resultant supernatant was collected, properly diluted by distilled water, vortexed for 10 min, and finally analyzed using LC-MS/MS. All the samples (PDG, PINL, diclofenac, and propranolol) for detection were prepared in duplicate.
The concentrations of the samples were determined by internal standard methods, in which the data were acquired and analyzed by Analyst 1.6.1 software station (AB Sciex Corporation, Boston, MA, United States). The equation of plasma protein binding rate is calculated as follows: Free drug rate (%)=CB/CA×100% (3) Plasma protein binding rate (%)=100%−Free drug rate(%) (4) C B is the drug concentration in dialysis chamber, and C A is the drug concentration in the sample chamber.
Background: In equilibrium dialysis only unbound substance equilibrates across the membrane.

A short description of series [2]: in vitro. Particulars: PAMPA. The protocol:
Verapamil and digoxin solutions, used as reference, prepared in the same manner as the test drugs. Tolbutamide dissolved with acetonitrile (200 ng/ml) was used as IS.
The resultant supernatants were determined by LC-MS/MS. The specific assay conditions are shown in Support Materials (Supplementary Table S2).

Series [3] has as its system PE-constricted aortic rings. Kind of series: Vasorelaxant effects on isolated PE-constricted aortic rings. On the set-up: species or system SD rats. Particulars: 10^–6 M PE, n = 6. The method, then: SD rats were anesthetized by exposure to ether, and the thoracic aorta was removed and immersed in Krebs-Henseleit (K-H) buffer ([Lee et al., 2013]) at 4°C. The connective tissues and fats around the aorta were carefully removed under the microscopes, and the blood was flushed. The aorta ring was cut into four sections approximately 3 mm long and suspended in organ chambers containing K-H buffer. The endothelium was also removed by gently rubbing the lumen of the vessel with a cotton swab. The aortic rings were placed in a 5 ml organ chambers of DMT multiwire myograph system (620M, Danish Myo Technology, Denmark) and were filled with K-H buffer aerated with 95% O2 and 5% CO2 at 37°C. The aortic rings were mounted on hooks connected to a tension transducer and a displacement device.
The initial vessel tension was slowly adjusted to 15 mN and maintained balanced for 60 min. The buffer was renewed once every 15 min. After equilibration, the vessel viability was pre-constricted by exposing the aortic rings to 60 mM KCl for 10 min ([Ding et al., 2019]). Then, the K-H buffer was continuously renewed to elute and restore the initial tension of the vascular ring to assay the vascular activity. The pre-treated operation was repeated two times, where the constriction amplitude after each KCl stimulation to reach the previous constriction amplitude was taken as the criterion, before the experiment continued. Subsequently, 10^–6 M PE was added to contract the blood vessel. After the constriction was stable, different concentrations of Ach (10^−9–10^–5 M) were used to dilate the vessels. Then, the vasorelaxation degree could be calculated with different Ach concentrations, as the following equation: Vasorelaxation degree (%)=Maxium constriction tension induced by PE−Minium diastolic tension induced by Ach/Maxium constriction tension induced by PE−Resting tension×100% (10) When the vasorelaxation degree corresponding to Ach (10^–5 M) is greater than 80%, the vascular endothelium is considered intact and functional. The endothelium is considered to be removed with a vasorelaxation degree of less than 20% ([Lee et al., 2013]). Endothelium-intact and endothelium-denuded aortic rings from the same aorta were tested.
After equilibration, the endothelium-intact and the endothelium-denuded aortic rings were pre-constricted with 10^–6 M PE in the K-H buffer system.
After equilibration, the endothelium-intact aortic rings were pre-constricted with 10^–6 M PE in the K-H buffer system. […] Then, the corresponding vasoconstrictive responses were examined and recorded.
In the vasorelaxant effects investigations, all the data are presented as mean ± SEM. Statistical analysis was performed using two-way ANOVA followed by Fisher’s least significant difference (LSD) test. Values at p < 0.05 were considered statistically significant.

Series [4] can be described thus: in vitro. Particulars: microsomes. The protocol:
Then, this incubation plate containing mixed solution and NADPH regeneration system was agitated on a plate shaker at 100 rpm and pre-incubated at 37°C for 5 min. Subsequently, 300 μL of precooled quenching solution was added to each well of another deep-well plate (quench plate), which was cooled on ice. The solution in the incubation plate was transferred into the well of the quench plate as the samples in 0 min before it was mixed with another 20 µL of NADPH regeneration solution in the wells.
The incubation plate was incubated at 37°C for 0, 10, 30, and 90 min. At each time point, 100 μL of the supernatant in the incubation plate was removed from each well, quenched immediately, transferred to the wells of the ice-cold quench plate, and vortexed for 5 min. Additionally, an equal volume of pre-warmed fresh regeneration solution was added to the incubation plate for compensation after every withdrawal. […] Each test was operated in duplicate. The determination conditions of LC-MS/MS are shown in Support Materials (Supplementary Table S4).
The in vitro T1/2 was determined by converting the analyte/IS peak area ratios to percentage of drug remaining using the initial peak (t = 0 min) area ratio values as 100%.

A word on the fraction unbound: it is free concentration divided by total concentration. A higher fraction unbound goes with weak binding. As a reminder, the Papp is a coefficient for how fast a substance crosses the barrier. Higher therefore signals fast passage. A word on the half-life: it is the time needed for the level to fall by half in the phase considered. What is called microsomal CLint is the capacity of the preparation to metabolise the compound, expressed as a volume cleared per time.

Structures are written as SMILES.

In series [1], `COc1cc(C2OCC3C(c4ccc(OC5OC(CO)C(O)C(O)C5O)c(OC)c4)OCC23)ccc1OC1OC(CO)C(O)C(O)C1O` (single isomer, unassigned; (+)) [PDG, (+)-1-pinoresinol 4,4′-di-O-β-D-glucopyranoside] showed a fraction unbound at 4 h, 10 µM of 0.548. The same molecule displayed an apparent permeability coefficient (Papp) at 18000 s in series [2] of 0.002 ×10⁻⁶ cm/s. For the same molecule, in series [2] (18000 s), the Peff is 0.02 cm/s, ×10^–7. Besides, in series [3] (increasing concentration 25–200 μM), the “vasorelaxant effect on PE-constricted aortic rings” value is listed as “concentration-dependent vasorelaxation”. Further, the “vasorelaxation degree, endothelium-denuded versus endothelium-intact group” value in series [3] (PINL difference at 50–100 μM) is “not statistically significant”. In series [4] (human), this molecule showed a half-life of 1000 min, a half-life at 5 µM of 1000 min and a microsomal CLint of 1.4 µL/min/mg. In series [4] (rat), this molecule had a half-life of 1040 min, a half-life at 5 µM of 1040 min and a microsomal CLint of 1.3 µL/min/mg.
